Experimental data from article PMC3445516 (PLoS ONE, 2012).
Read-outs that look alike come from different tables or passages of the source.

Tests used:
Test in all cases: Ambit kinase profiling, competition binding
LATS2 = molecular target: T1, LATS2 (Homo sapiens, UniProt Q9NRM7); conditions: for % Competition: 10 µM
T1 construct: purchased Ambit Biosciences (KINOMEscan)
T1 sequence (Q9NRM7 1-1088): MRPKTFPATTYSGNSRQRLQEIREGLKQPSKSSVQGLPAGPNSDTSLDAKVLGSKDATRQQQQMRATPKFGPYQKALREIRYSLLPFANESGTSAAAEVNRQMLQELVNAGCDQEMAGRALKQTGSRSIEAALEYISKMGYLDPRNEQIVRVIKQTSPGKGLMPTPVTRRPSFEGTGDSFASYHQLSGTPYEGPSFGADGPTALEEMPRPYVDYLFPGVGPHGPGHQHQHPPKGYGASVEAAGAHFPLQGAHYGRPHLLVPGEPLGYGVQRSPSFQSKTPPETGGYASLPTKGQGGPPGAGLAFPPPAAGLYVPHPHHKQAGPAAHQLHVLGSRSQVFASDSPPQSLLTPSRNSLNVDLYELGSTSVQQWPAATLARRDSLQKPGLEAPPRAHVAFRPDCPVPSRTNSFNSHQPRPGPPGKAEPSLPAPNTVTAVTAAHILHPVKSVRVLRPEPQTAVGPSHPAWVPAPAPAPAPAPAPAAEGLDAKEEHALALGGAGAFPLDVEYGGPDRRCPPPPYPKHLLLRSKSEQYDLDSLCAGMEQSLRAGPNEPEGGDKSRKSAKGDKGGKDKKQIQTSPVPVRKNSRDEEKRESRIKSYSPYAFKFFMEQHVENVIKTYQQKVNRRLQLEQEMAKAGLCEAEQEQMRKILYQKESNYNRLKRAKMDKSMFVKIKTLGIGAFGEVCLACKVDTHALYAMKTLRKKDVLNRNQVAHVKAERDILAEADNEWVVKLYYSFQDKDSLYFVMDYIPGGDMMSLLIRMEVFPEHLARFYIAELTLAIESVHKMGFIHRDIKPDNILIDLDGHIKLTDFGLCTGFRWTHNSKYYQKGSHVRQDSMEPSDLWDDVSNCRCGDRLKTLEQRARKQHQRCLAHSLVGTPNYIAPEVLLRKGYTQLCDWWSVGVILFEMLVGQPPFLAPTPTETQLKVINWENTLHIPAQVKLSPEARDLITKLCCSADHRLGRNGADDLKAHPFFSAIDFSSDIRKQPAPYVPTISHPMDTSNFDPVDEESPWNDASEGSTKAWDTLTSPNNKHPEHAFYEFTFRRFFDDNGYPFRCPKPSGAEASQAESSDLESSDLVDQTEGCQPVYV
Protocol: (§1) Also included in the kinase profile are four isoforms of PKC (δ, ε, η, θ) and eight isoforms of CAMKs (CAMKIα, δ, γ; CAMKIIα, β, δ, γ; CAMK4).
(§2) The global kinase profiling experiment was performed by Ambit Biosciences.

CAMKIδ = molecular target: T2, CAMKIδ (Homo sapiens, UniProt Q8IU85); conditions: for competition: CAMKIδ, 10 µM
T2 construct: purchased Ambit Biosciences (KINOMEscan)
Protocol: as §1, §2

EGFR(E746-A750del) = molecular target: T3, EGFR(E746-A750del) (Homo sapiens, UniProt P00533, DEL746-750); conditions: for % Competition: 10 µM
T3 construct: purchased Ambit Biosciences (KINOMEscan)
Protocol: as §1, §2

PRKD3 = molecular target: T4, PRKD3 (Homo sapiens, UniProt O94806)
T4 construct: purchased Ambit Biosciences (KINOMEscan)
T4 sequence (O94806 1-890): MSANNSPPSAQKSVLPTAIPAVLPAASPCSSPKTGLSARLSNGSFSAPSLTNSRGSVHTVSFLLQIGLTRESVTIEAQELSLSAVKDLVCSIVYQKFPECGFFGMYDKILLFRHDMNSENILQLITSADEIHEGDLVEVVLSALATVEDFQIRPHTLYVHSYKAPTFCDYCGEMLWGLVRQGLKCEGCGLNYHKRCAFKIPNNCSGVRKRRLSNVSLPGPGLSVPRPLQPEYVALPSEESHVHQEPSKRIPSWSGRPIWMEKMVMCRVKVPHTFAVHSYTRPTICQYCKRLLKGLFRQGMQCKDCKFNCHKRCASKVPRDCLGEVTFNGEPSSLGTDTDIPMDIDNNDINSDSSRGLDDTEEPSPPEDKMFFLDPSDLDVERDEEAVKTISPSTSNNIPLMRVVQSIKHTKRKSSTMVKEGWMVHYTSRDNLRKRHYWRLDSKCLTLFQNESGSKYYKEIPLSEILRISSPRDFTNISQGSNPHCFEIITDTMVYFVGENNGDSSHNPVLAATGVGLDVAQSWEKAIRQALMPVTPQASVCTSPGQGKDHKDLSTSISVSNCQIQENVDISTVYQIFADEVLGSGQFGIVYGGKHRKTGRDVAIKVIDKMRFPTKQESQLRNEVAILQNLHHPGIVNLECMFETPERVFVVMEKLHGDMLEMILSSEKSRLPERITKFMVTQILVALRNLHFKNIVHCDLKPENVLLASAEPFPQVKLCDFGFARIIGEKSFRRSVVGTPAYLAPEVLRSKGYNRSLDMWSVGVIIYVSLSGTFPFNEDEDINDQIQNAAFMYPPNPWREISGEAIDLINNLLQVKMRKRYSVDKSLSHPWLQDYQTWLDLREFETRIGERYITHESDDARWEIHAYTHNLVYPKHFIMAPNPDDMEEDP
Protocol: as §1, §2

T2 sequence (Q8IU85 whole entry): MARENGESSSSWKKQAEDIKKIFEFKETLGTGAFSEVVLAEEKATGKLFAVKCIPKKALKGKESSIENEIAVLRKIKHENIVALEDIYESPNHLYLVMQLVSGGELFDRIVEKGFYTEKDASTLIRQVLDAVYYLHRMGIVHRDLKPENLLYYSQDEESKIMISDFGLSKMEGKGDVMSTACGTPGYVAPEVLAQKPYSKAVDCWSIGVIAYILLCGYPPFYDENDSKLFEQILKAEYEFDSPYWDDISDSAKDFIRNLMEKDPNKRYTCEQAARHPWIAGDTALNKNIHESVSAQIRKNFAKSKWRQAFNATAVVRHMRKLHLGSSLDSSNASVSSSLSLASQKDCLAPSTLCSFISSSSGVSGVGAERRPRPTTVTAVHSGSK

Percent Competition (LATS2; compound concentration 10 uM) [%] | inhibition at 10 µM (CAMKIδ; CAMK1D, compound concentration 10 uM, read-out: Percent Competition) [%] | Percent Competition (EGFR(E746-A750del); compound concentration 10 uM) [%] | inhibition at 10 µM (PRKD3; PRKD3, compound concentration 10 uM, read-out: Percent Competition) [%] | inhibition at 10 µM (PRKD3; PRKD3 (PKD3), 10 µM, read-out: % Competition) [%] | Compound | % Competition (LATS2) [%] | competition (CAMKIδ) [%] | % Competition (EGFR(E746-A750del)) [%] | inhibition at 10 µM (PRKD3; read-out: % Competition) [%]
82 | < 50 | 96 | 98 | – | Fc1ccc(-c2c(-c3ccncc3)[nH]c3nccnc23)cc1 [RO1155697-000-005] | – | – | – | –
– | – | – | – | 98 | Fc1ccc(-c2c(-c3ccncc3)[nH]c3nccnc23)cc1 [Compound 122] | 82 | < 50 | 96 | –
– | – | – | – | – | CC(O)CNc1cc(-c2[nH]c3cccnc3c2-c2ccc(F)cc2)ccn1 (stereo not drawn) [Compound 140] | <50 | < 50 | 90 | 96
